Measured values published in ChEMBL document CHEMBL5230082, “Recent advances in steroid amino acid conjugates: Old scaffolds with new dimensions” (Eur J Med Chem, 2020).
In brackets after ≈: the same amount, converted by molar mass. Values belong to the molecule of their own block, whether it stands above or below them.

How the values were obtained:
[1] = test system: Rattus norvegicus; assay: Antiarrhythmic activity in pentobarbital anesthetized rat model assessed as death rate at 10 mg/kg, iv relative to control; format: functional
[2] = test system: Rattus norvegicus; assay: Antiarrhythmic activity in pentobarbital anesthetized rat model assessed as ventricular fibrillation at 10 mg/kg, iv relative to control; format: functional
[3] = test system: Rattus norvegicus; assay: Antiarrhythmic activity in pentobarbital anesthetized rat model assessed as number of ventricular ectopics at 10 mg/kg, iv; format: functional
[4] = Cytotoxicity against human A2780cis cells assessed as reduction in cell viability incubated for 72 hrs; format: functional, cell-based
[5] = target: Ephrin type-A receptor 2/Ephrin-A1 (Homo sapiens, UniProt P20827+P29317); assay: Inhibition of EPhA2-ephrin-A1 (unknown origin) protein-protein interaction; format: protein assay
[6] = target: Human immunodeficiency virus type 1 protease (Human immunodeficiency virus 1, UniProt Q72874); assay: Inhibition of HIV-1 protease assessed as inhibition
[7] = test system: SH-SY5Y; assay: Neuroprotective activity against H2O2-induced human SH-SY5Y cell injury by MTT assay relative to control; format: functional
[8] = test system: Cladosporium cucumerinum; assay: Antifungal activity against Cladosporium cucumerinum assessed as zone of inhibition at 30 ug per disc; format: functional; conditions: read-out: DIZ
[9] = test system: Cladosporium cucumerinum; assay: Antifungal activity against Cladosporium cucumerinum assessed as zone of inhibition at 60 ug per disc; format: functional; conditions: read-out: DIZ
[10] = test system: Candida albicans; assay: Antifungal activity against Candida albicans assessed as fungal growth inhibition per disk; format: functional
[11] = test system: Globisporangium ultimum; assay: Antifungal activity against Globisporangium ultimum assessed as fungal growth inhibition per disk; format: functional
[12] = test system: Staphylococcus aureus; assay: Antibacterial activity against Staphylococcus aureus assessed as bacterial growth inhibition per disk; format: functional
[13] = test system: Bacillus subtilis; assay: Antibacterial activity against Bacillus subtilis; format: functional
[14] = test system: Shigella flexneri; assay: Antibacterial activity against Shigella flexneri; format: functional
[15] = test system: Klebsiella pneumoniae; assay: Antibacterial activity against Klebsiella pneumoniae; format: functional
[16] = test system: Escherichia coli; assay: Antibacterial activity against Escherichia coli; format: functional
[17] = test system: Streptococcus pneumoniae; assay: Antibacterial activity against Streptococcus pneumoniae; format: functional
[18] = test system: Streptococcus oralis; assay: Antibacterial activity against Streptococcus oralis; format: functional
[19] = test system: Acinetobacter baumannii; assay: Antibacterial activity against Acinetobacter baumannii; format: functional
[20] = test system: Staphylococcus aureus; assay: Antibacterial activity against Staphylococcus aureus; format: functional
[21] = test system: Pseudomonas aeruginosa; assay: Antibacterial activity against Pseudomonas aeruginosa; format: functional
[22] = test system: Salmonella typhimurium; assay: Antibacterial activity against Salmonella enterica subsp. enterica serovar Typhimurium; format: functional
[23] = test system: HeLa; assay: Cytotoxicity against human HeLa cells assessed as reduction in cell viability; format: functional, cell-based
[24] = test system: Candida albicans; assay: Antifungal activity against Candida albicans assessed as zone of inhibition at 100 ug per disc; format: functional; conditions: read-out: DIZ

Chain of Ephrin type-A receptor 2/Ephrin-A1 (P29317 whole entry): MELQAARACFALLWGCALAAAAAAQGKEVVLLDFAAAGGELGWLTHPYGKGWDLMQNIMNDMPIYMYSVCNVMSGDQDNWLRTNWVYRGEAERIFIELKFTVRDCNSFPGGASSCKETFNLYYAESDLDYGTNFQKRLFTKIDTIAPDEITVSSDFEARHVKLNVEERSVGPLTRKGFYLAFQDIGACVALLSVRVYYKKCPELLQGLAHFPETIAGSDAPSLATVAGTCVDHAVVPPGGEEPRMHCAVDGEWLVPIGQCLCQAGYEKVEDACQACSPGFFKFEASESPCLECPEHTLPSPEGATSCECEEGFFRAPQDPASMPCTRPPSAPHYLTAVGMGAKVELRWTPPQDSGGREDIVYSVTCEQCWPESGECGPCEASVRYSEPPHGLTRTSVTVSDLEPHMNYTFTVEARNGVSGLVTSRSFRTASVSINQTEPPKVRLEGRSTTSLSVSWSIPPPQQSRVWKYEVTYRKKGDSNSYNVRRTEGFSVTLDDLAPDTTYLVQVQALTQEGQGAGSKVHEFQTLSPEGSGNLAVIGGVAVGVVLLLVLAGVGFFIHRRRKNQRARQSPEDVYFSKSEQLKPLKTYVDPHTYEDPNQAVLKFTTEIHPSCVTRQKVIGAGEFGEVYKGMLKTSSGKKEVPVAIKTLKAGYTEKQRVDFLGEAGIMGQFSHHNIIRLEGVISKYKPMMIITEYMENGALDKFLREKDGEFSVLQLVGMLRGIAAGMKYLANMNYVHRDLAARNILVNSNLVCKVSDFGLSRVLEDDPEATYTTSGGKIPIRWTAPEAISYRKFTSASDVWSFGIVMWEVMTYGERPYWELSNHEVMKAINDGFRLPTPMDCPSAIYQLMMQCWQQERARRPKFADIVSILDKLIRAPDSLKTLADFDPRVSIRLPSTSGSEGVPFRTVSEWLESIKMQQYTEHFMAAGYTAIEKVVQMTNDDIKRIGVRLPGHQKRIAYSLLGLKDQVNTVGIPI
Chain of Ephrin type-A receptor 2/Ephrin-A1 (P20827 whole entry): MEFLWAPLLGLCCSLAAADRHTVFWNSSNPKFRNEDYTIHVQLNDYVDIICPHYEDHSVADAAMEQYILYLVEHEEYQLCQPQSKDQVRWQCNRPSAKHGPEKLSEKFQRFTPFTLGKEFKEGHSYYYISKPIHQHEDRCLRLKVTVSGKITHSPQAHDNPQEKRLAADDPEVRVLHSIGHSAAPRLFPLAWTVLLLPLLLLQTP

SMILES: C[C@]12C[C@H](O)[C@@H](N)C[C@@H]1CC[C@@H]1[C@@H]2CC[C@]2(C)C(=O)CC[C@@H]12 [AMAFOLONE]
Activity [1]: 0%
Activity [2]: 13%
Activity [3]: 213

SMILES: CC(C)CCC[C@@H](C)[C@H]1CC[C@H]2[C@@H]3CC=C4C[C@@H](OC(=O)N[C@H](Cc5ccc(O)cc5)C(=O)O)CC[C@]4(C)[C@H]3CC[C@]12C
IC50 [4]: 50 µM

SMILES: C[C@H](CCC(=O)O)[C@H]1CC[C@H]2[C@@H]3CC[C@@H]4CCCC[C@]4(C)[C@H]3CC[C@]12C [URSOCHOLANIC ACID]
Ki [5]: 5.1 µM

IC50 [6]: 125 µM
SMILES: C[C@H](CCC(=O)N[C@H](CC(=O)OCc1ccccc1)C(=O)O)[C@H]1CC[C@H]2[C@@H]3[C@H](O)C[C@@H]4C[C@H](O)CC[C@]4(C)[C@H]3C[C@H](O)[C@]12C

SMILES: COC(=O)[C@H](Cc1ccccc1)NC(=O)[C@@H](C)CC[C@H]1O[C@H]2C[C@H]3[C@@H]4CC[C@@H]5C[C@@H](OC)CC[C@]5(C)[C@H]4CC[C@]3(C)[C@H]2[C@@H]1C
Activity [7]: 102.2%

MIC [10]: 75 µg
MIC [11]: 25 µg
MIC [12]: 100 µg
SMILES: C=C(C(=O)N[C@H](C(=O)O)c1ccc(OC)cc1)C(C)CC[C@@H](C)[C@H]1CCC2=C3CC[C@H]4[C@H](C)[C@@H](OS(=O)(=O)O)CC[C@]4(C)[C@H]3CC[C@@]21C (stereo partly specified)
zone of inhibition at 30 µg/disc [8]: 10.1 mm
zone of inhibition at 60 µg/disc [9]: 8 mm

MIC [13]: 4 µM (≈ 2.66 µg/mL)
MIC99 [14]: 4 µM (≈ 2.66 µg/mL)
MIC99 [15]: 4 µM (≈ 2.66 µg/mL)
MIC99 [16]: 4 µM (≈ 2.66 µg/mL)
MIC [17]: 4 µM (≈ 2.66 µg/mL)
MIC [18]: 4 µM (≈ 2.66 µg/mL)
MIC99 [19]: 4 µM (≈ 2.66 µg/mL)
MIC [20]: 4 µM (≈ 2.66 µg/mL)
MIC99 [21]: 4 µM (≈ 2.66 µg/mL)
MIC99 [22]: 4 µM (≈ 2.66 µg/mL)
SMILES: CCCCCCOC(=O)CC[C@@H](C)[C@H]1CC[C@H]2[C@@H]3[C@H](OC(=O)CN)C[C@@H]4C[C@H](OC(=O)CN)CC[C@]4(C)[C@H]3C[C@H](OC(=O)CN)[C@]12C

SMILES: CC(C)CCC[C@@H](C)[C@H]1CC[C@H]2[C@@H]3CC=C4C[C@@H](OC(=O)N[C@H](Cc5ccc(OP(=O)(O)O)cc5)C(=O)O)CC[C@]4(C)[C@H]3CC[C@]12C
IC50 [23]: 16 µM

SMILES: C=C(C(=O)N[C@H](C(=O)O)c1ccc(OC)cc1)C(C)CC[C@@H](C)[C@H]1CCC2=C3[C@H](OC)C[C@H]4[C@H](C)[C@@H](OS(=O)(=O)O)CC[C@]4(C)[C@H]3CC[C@@]21C (stereo partly specified)
zone of inhibition at 100 µg/disc [24]: 9.8 mm
zone of inhibition at 30 µg/disc [8]: 10.1 mm
zone of inhibition at 60 µg/disc [9]: 8 mm
